# Laboratory results taken from ChEMBL document CHEMBL3885861, “Open TG-GATES”.
# Organism: Rattus norvegicus
# Assay: Open TG-GATES - Regimen: Daily Repeat
# Type: toxicity, organism-based, Sprague-Dawley
# Design: regimen Daily Repeat, gender Male, age 6 weeks
# Conditions: in vivo, po, 60 mg/kg, route gavage, dose level Middle; for APTT / Bas / Eos / Fbg / Hb / Ht / Lym / MCH / MCHC / MCV / Mono / Neu / PT / Plat / RBC / Ret / WBC: tissue Blood; for KIDNEY_L / KIDNEY_R / KIDNEY_TOTAL: tissue Kidney; for LIVER: tissue Liver; for A/G / ALP / ALT / AST / BUN / CRE / Ca / Cl / DBIL / GLC / IP / K / LDH / Na / PL / RALB / TBIL / TC / TG / TP / gamma-GTP: tissue Plasma
compound,measurement,setting,value
CC(CN1c2ccccc2Sc2ccccc21)N(C)C (configuration not stated) [PROMETHAZINE],TERMINAL_BW,"72 h, time 3 day",228.9 g
same,APTT,"72 h, time 3 day",22.4 s
same,Bas,"72 h, time 3 day",0%
same,Eos,"72 h, time 3 day",0.8%
same,Fbg,"72 h, time 3 day",300.8 mg/dL
same,Hb,"72 h, time 3 day",13.3 g/dL
same,Ht,"72 h, time 3 day",40.1%
same,Lym,"72 h, time 3 day",78.8%
same,MCH,"72 h, time 3 day",20.8 pg
same,MCHC,"72 h, time 3 day",33.1%
same,MCV,"72 h, time 3 day",62.8 fL
same,Mono,"72 h, time 3 day",2.4%
same,Neu,"72 h, time 3 day",17%
same,PT,"72 h, time 3 day",16.1 s
same,Plat,"72 h, time 3 day",121.6 x10_4/uL
same,RBC,"72 h, time 3 day",639.4 x10_4/ul
same,Ret,"72 h, time 3 day",6.1%
same,WBC,"72 h, time 3 day",113.7 x10_2/uL
same,KIDNEY_L,"72 h, time 3 day",1 g
same,KIDNEY_R,"72 h, time 3 day",1 g
same,KIDNEY_TOTAL,"72 h, time 3 day",2 g
same,LIVER,"72 h, time 3 day",11.7 g
same,A/G,"72 h, time 3 day",1.3
same,ALP,"72 h, time 3 day",1638.6 IU/L
same,ALT,"72 h, time 3 day",45.8 IU/L
same,AST,"72 h, time 3 day",74.6 IU/L
same,BUN,"72 h, time 3 day",16.8 mg/dL
same,CRE,"72 h, time 3 day",0.2 mg/dL
same,Ca,"72 h, time 3 day",10.9 mg/dL
same,Cl,"72 h, time 3 day",106.6 meq/L
same,DBIL,"72 h, time 3 day",0.002 mg/dL
same,GLC,"72 h, time 3 day",184.8 mg/dL
same,IP,"72 h, time 3 day",7 mg/dL
same,K,"72 h, time 3 day",4.3 meq/L
same,LDH,"72 h, time 3 day",158.2 IU/L
same,Na,"72 h, time 3 day",142 meq/L
same,PL,"72 h, time 3 day",140.8 mg/dL
same,RALB,"72 h, time 3 day",3.1 g/dL
same,TBIL,"72 h, time 3 day",0.008 mg/dL
same,TC,"72 h, time 3 day",73.2 mg/dL
same,TG,"72 h, time 3 day",122.8 mg/dL
same,TP,"72 h, time 3 day",5.5 g/dL
same,gamma-GTP,"72 h, time 3 day",1.4 IU/L
same,TERMINAL_BW,"[…], time 7 day",255.8 g
same,TERMINAL_BW,"[…], time 14 day",294.2 g
same,TERMINAL_BW,"[…], time 28 day",366.5 g
same,APTT,"[…], time 7 day",23.8 s
same,Bas,"[…], time 7 day",0%
same,Eos,"[…], time 7 day",0.8%
same,Fbg,"[…], time 7 day",293.6 mg/dL
same,Hb,"[…], time 7 day",13.6 g/dL
same,Ht,"[…], time 7 day",41.2%
same,Lym,"[…], time 7 day",80.4%
same,MCH,"[…], time 7 day",20.2 pg
same,MCHC,"[…], time 7 day",33.1%
same,MCV,"[…], time 7 day",61.1 fL
same,Mono,"[…], time 7 day",2.8%
same,Neu,"[…], time 7 day",15.2%
same,PT,"[…], time 7 day",15.8 s
same,Plat,"[…], time 7 day",107.7 x10_4/uL
same,RBC,"[…], time 7 day",674.2 x10_4/ul
same,Ret,"[…], time 7 day",5.1%
same,WBC,"[…], time 7 day",158 x10_2/uL
same,APTT,"[…], time 14 day",25 s
same,Bas,"[…], time 14 day",0%
same,Eos,"[…], time 14 day",1%
same,Fbg,"[…], time 14 day",312.6 mg/dL
same,Hb,"[…], time 14 day",14.2 g/dL
same,Ht,"[…], time 14 day",41.7%
same,Lym,"[…], time 14 day",77.8%
same,MCH,"[…], time 14 day",20.1 pg
same,MCHC,"[…], time 14 day",34%
same,MCV,"[…], time 14 day",59.1 fL
same,Mono,"[…], time 14 day",2%
same,Neu,"[…], time 14 day",18.4%
same,PT,"[…], time 14 day",15.6 s
same,Plat,"[…], time 14 day",111.3 x10_4/uL
same,RBC,"[…], time 14 day",706.4 x10_4/ul
same,Ret,"[…], time 14 day",4.8%
same,WBC,"[…], time 14 day",120.7 x10_2/uL
same,APTT,"[…], time 28 day",25.7 s
same,Bas,"[…], time 28 day",0%
same,Eos,"[…], time 28 day",1%
same,Fbg,"[…], time 28 day",303.6 mg/dL
same,Hb,"[…], time 28 day",15.3 g/dL
same,Ht,"[…], time 28 day",43.8%
same,Lym,"[…], time 28 day",79.2%
same,MCH,"[…], time 28 day",19.6 pg
same,MCHC,"[…], time 28 day",34.9%
same,MCV,"[…], time 28 day",56.4 fL
same,Mono,"[…], time 28 day",1.8%
same,Neu,"[…], time 28 day",17.2%
same,PT,"[…], time 28 day",16.3 s
same,Plat,"[…], time 28 day",96 x10_4/uL
same,RBC,"[…], time 28 day",778.4 x10_4/ul
same,Ret,"[…], time 28 day",2.9%
same,WBC,"[…], time 28 day",96 x10_2/uL
same,KIDNEY_L,"[…], time 7 day",1.1 g
same,KIDNEY_R,"[…], time 7 day",1.1 g
same,KIDNEY_TOTAL,"[…], time 7 day",2.2 g
same,KIDNEY_L,"[…], time 14 day",1.2 g
same,KIDNEY_R,"[…], time 14 day",1.2 g
same,KIDNEY_TOTAL,"[…], time 14 day",2.4 g
same,KIDNEY_L,"[…], time 28 day",1.4 g
same,KIDNEY_R,"[…], time 28 day",1.4 g
same,KIDNEY_TOTAL,"[…], time 28 day",2.8 g
same,LIVER,"[…], time 7 day",13.5 g
same,LIVER,"[…], time 14 day",14.9 g
same,LIVER,"[…], time 28 day",17.3 g
same,A/G,"[…], time 7 day",1.2
same,ALP,"[…], time 7 day",1458.6 IU/L
same,ALT,"[…], time 7 day",44 IU/L
same,AST,"[…], time 7 day",71 IU/L
same,BUN,"[…], time 7 day",20.6 mg/dL
same,CRE,"[…], time 7 day",0.2 mg/dL
same,Ca,"[…], time 7 day",10.7 mg/dL
same,Cl,"[…], time 7 day",106.2 meq/L
same,DBIL,"[…], time 7 day",0 mg/dL
same,GLC,"[…], time 7 day",181.2 mg/dL
same,IP,"[…], time 7 day",7 mg/dL
same,K,"[…], time 7 day",4.4 meq/L
same,LDH,"[…], time 7 day",143.4 IU/L
same,Na,"[…], time 7 day",141.8 meq/L
same,PL,"[…], time 7 day",144.4 mg/dL
same,RALB,"[…], time 7 day",3 g/dL
same,TBIL,"[…], time 7 day",0.006 mg/dL
same,TC,"[…], time 7 day",75.4 mg/dL
same,TG,"[…], time 7 day",106.2 mg/dL
same,TP,"[…], time 7 day",5.6 g/dL
same,gamma-GTP,"[…], time 7 day",2.2 IU/L
same,A/G,"[…], time 14 day",1.2
same,ALP,"[…], time 14 day",1448 IU/L
same,ALT,"[…], time 14 day",46.6 IU/L
same,AST,"[…], time 14 day",72.2 IU/L
same,BUN,"[…], time 14 day",19 mg/dL
same,CRE,"[…], time 14 day",0.2 mg/dL
same,Ca,"[…], time 14 day",10.9 mg/dL
same,Cl,"[…], time 14 day",106 meq/L
same,DBIL,"[…], time 14 day",0 mg/dL
same,GLC,"[…], time 14 day",182.2 mg/dL
same,IP,"[…], time 14 day",6.9 mg/dL
same,K,"[…], time 14 day",4.1 meq/L
same,LDH,"[…], time 14 day",128.4 IU/L
same,Na,"[…], time 14 day",142.4 meq/L
same,PL,"[…], time 14 day",150.4 mg/dL
same,RALB,"[…], time 14 day",3.2 g/dL
same,TBIL,"[…], time 14 day",0.012 mg/dL
same,TC,"[…], time 14 day",76 mg/dL
same,TG,"[…], time 14 day",128.4 mg/dL
same,TP,"[…], time 14 day",5.9 g/dL
same,gamma-GTP,"[…], time 14 day",2.4 IU/L
same,A/G,"[…], time 28 day",1.1
same,ALP,"[…], time 28 day",1017.8 IU/L
same,ALT,"[…], time 28 day",49.4 IU/L
same,AST,"[…], time 28 day",69 IU/L
same,BUN,"[…], time 28 day",18.8 mg/dL
same,CRE,"[…], time 28 day",0.2 mg/dL
same,Ca,"[…], time 28 day",10.8 mg/dL
same,Cl,"[…], time 28 day",104 meq/L
same,DBIL,"[…], time 28 day",0 mg/dL
same,GLC,"[…], time 28 day",185.6 mg/dL
same,IP,"[…], time 28 day",7 mg/dL
same,K,"[…], time 28 day",3.7 meq/L
same,LDH,"[…], time 28 day",158 IU/L
same,Na,"[…], time 28 day",143.2 meq/L
same,PL,"[…], time 28 day",152.4 mg/dL
same,RALB,"[…], time 28 day",3.3 g/dL
same,TBIL,"[…], time 28 day",0.026 mg/dL
same,TC,"[…], time 28 day",79 mg/dL
same,TG,"[…], time 28 day",105.2 mg/dL
same,TP,"[…], time 28 day",6.3 g/dL
same,gamma-GTP,"[…], time 28 day",2.2 IU/L
